US11149054B2, “Oxysterols and methods of use thereof” (Sage Therapeutics, Inc., priority 2016, dated 2021)
pEC50: −log10 of the molar value. Read-outs that look alike come from different tables or passages of the source.

Tests used:
[1] = biological target: GlunN1/GluN2A glutamate receptors (Homo sapiens (Human), UniProt Q05586+Q12879); assay: Whole-cell patch clamp of mammalian cells (Ionworks Barracuda), positive allosteric modulation, GluN1/GluN2A; type: cell-based
Summary of the method: (§1)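 Perforated-patch whole-cell recording, holding −70 mV, −40 mV during application; Cs-based internal pH 7.2, external with 5 mM CaCl2 pH 7.4. Test article pre-applied alone 5 min, then co-applied with EC20 L-glutamate plus 30 μM glycine. EC50 from Hill fit of % activation over the EC20 current.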

[2] = biological target: GluN2B glutamate receptors (Homo sapiens (Human), UniProt Q05586+Q13224); assay: Whole-cell patch clamp of mammalian cells (Ionworks Barracuda), positive allosteric modulation, GluN2B; type: cell-based; settings: for Emax: read-out: Avg Emax 2B (%)
Summary of the method: as §1

[3] = HEK293 cells, % potentiation of current elicited with EC20 L-glutamate and 30 μM glycine, read-out: Avg Emax 2A (%)
[4] = % potentiation of current elicited with EC20 L-glutamate and 30 μM glycine
[5] = HEK293 cells, co-application with EC20 L-glutamate and 30 μM glycine, 8-point concentration-response, read-out: Avg EC50 2A
[6] = co-application with EC20 L-glutamate and 30 μM glycine, 8-point concentration-response, read-out: Avg EC50 2B
[7] = HEK293, read-out: Avg Emax 2A (%)

Chain of GluN2B glutamate receptors (Q13224 27-1484, other chains not shown): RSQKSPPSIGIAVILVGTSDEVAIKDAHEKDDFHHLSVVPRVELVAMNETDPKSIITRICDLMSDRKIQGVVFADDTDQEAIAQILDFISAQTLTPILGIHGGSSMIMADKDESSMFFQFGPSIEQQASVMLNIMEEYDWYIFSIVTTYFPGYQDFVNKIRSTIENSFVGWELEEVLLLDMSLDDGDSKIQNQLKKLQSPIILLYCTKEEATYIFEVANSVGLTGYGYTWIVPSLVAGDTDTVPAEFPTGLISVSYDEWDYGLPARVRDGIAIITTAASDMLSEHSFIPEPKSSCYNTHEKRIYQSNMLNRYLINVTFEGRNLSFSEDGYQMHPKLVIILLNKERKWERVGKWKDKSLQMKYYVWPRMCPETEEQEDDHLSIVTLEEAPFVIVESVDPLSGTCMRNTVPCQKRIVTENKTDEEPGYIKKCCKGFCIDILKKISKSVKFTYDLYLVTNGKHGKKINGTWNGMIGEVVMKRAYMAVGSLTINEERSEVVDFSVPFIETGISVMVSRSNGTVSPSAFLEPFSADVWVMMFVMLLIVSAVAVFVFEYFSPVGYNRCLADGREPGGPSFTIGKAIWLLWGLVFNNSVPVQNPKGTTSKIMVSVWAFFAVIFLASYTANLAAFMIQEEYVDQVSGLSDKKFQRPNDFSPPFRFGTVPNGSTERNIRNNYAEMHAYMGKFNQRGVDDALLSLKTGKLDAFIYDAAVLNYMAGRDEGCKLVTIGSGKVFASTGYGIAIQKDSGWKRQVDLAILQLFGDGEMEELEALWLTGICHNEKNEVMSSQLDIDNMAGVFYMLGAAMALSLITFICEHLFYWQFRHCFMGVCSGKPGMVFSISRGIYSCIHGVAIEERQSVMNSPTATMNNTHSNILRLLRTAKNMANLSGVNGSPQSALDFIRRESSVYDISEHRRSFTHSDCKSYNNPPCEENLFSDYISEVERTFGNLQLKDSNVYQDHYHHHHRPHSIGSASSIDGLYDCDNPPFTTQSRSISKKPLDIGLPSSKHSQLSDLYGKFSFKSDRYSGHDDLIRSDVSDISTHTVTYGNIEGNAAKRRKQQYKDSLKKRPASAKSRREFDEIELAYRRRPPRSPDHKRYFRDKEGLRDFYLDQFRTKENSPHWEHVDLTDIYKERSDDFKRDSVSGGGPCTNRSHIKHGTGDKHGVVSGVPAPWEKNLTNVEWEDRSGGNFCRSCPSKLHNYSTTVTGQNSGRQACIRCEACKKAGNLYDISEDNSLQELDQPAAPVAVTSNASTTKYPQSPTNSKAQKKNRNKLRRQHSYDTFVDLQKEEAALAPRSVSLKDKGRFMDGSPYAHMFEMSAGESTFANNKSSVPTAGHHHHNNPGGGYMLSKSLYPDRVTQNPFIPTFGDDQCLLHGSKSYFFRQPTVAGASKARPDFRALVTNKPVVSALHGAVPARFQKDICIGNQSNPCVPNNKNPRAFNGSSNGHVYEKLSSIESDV
Chain of GlunN1/GluN2A glutamate receptors (Q12879 23-1464, other chains not shown): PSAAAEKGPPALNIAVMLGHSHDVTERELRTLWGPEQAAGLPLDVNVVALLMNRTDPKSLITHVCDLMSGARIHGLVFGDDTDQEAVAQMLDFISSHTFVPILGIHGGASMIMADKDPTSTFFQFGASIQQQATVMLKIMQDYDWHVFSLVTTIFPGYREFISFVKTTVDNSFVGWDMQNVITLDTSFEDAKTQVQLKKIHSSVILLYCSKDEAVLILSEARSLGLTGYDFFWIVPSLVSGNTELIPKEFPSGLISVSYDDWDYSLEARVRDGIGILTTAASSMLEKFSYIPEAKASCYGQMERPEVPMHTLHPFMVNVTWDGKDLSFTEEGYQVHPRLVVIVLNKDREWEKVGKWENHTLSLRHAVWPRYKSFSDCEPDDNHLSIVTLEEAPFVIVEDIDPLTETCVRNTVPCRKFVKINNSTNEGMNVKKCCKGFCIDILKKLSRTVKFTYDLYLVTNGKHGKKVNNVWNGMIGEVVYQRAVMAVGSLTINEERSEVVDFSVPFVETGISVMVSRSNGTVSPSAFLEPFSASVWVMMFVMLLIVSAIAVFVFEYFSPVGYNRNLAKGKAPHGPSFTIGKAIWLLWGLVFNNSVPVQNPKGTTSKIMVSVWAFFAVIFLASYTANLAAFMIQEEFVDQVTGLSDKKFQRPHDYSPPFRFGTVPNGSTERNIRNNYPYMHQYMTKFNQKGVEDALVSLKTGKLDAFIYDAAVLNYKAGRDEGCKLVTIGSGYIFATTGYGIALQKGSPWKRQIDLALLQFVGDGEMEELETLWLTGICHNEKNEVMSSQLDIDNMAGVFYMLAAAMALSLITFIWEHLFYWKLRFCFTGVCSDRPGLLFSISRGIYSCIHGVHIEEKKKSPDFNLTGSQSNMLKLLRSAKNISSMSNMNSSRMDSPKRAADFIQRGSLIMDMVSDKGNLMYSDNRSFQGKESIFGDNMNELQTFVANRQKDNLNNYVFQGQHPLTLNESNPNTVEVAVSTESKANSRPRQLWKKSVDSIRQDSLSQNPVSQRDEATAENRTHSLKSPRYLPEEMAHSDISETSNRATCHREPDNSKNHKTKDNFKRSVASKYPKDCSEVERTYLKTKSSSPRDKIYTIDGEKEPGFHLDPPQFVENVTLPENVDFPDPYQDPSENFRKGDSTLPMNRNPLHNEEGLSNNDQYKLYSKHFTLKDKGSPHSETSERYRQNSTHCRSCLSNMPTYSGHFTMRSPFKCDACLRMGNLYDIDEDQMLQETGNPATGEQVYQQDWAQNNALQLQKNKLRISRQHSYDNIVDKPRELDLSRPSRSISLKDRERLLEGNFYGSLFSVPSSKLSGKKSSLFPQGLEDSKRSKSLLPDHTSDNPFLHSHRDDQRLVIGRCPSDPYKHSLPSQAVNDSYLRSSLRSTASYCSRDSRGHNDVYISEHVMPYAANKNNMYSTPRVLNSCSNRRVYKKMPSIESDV

## C[C@H](CCC1(O)CCCCCC1)[C@H]1CC[C@H]2[C@@H]3CC[C@H]4C[C@](O)(C(F)(F)F)CC[C@]4(C)[C@H]3CC[C@]12C [Compound 3983]
[1]
  pEC50: 7.06
[2]
  pEC50: 6.61

## C[C@H](O)CC[C@@H](C)[C@H]1CC[C@H]2[C@@H]3CC[C@H]4C[C@](O)(C(F)(F)F)CC[C@]4(C)[C@H]3CC[C@]12C [Compound 6]
[1]
  pEC50: 6.61
[2]
  pEC50: 6.13

## C[C@H](CC[C@H](O)C1CCOCC1)[C@H]1CC[C@H]2[C@@H]3CC[C@H]4C[C@](O)(C(F)(F)F)CC[C@]4(C)[C@H]3CC[C@]12C [Compound 2080]
[1]
  pEC50: 6.78
[1]; [3]
  Emax: 77.2%
[2]
  pEC50: 6.73
[2]; [4]
  Emax: 147%

## CC[C@]1(O)CC[C@H]2[C@@H](CC[C@@H]3[C@@H]2CC[C@]2(C)[C@@H]([C@H](C)CC[C@H](O)C(C)C)CC[C@@H]32)C1 [Compound 4A77]
[1]; [3]
  Emax: 382%
[1]; [5]
  pEC50: 6.37
[2]; [4]
  Emax: 254%
[2]; [6]
  pEC50: 6.54

## C[C@H](CC[C@H](O)C(C)(C)C)[C@H]1CC[C@H]2[C@@H]3CC[C@@H]4C[C@](O)(C(F)(F)F)CC[C@]4(C)[C@H]3CC[C@]12C [Compound 3634]
[1]
  pEC50: 6.37
[2]
  pEC50: 6.39

## CC[C@@H](O)CCC[C@@H](C)[C@H]1CC[C@H]2[C@@H]3CC=C4C[C@](O)(CC)CC[C@@H]4[C@H]3CC[C@]12C [Compound 10841]
[1]
  pEC50: < 5.00
[1]; [7]
  Emax: 15.6%
[2]
  pEC50: < 5.00
  Emax: 30.1%

## CC[C@]1(O)CC[C@H]2C(=CC[C@@H]3[C@@H]2CC[C@]2(C)[C@@H]([C@H](C)CCC4(O)CCC(F)(F)CC4)CC[C@@H]32)C1 [Compound 8708]
[1]
  pEC50: 6.16
[1]; [3]
  Emax: 117%
[2]
  pEC50: 6.26
[2]; [4]
  Emax: 243%

## CC[C@]1(O)CC[C@H]2C(=CC[C@@H]3[C@@H]2CC[C@]2(C)[C@@H]([C@H](C)CCC4(O)CCOC4)CC[C@@H]32)C1 (stereo partly shown) [Compound 8689]
[1]
  pEC50: 6.77
[2]
  pEC50: 6.76

## C[C@H](CCC(C)(O)c1ccccc1)[C@H]1CC[C@H]2[C@@H]3CC=C4C[C@@](C)(O)CC[C@]4(C)[C@H]3CC[C@]12C (stereo partly shown) [Compound 456]
[1]; [7]
  Emax: 53.4%
[2]
  Emax: 74.8%

## C[C@H](CC[C@@H](O)C1CCCCC1)[C@H]1CC[C@H]2[C@@H]3CC[C@H]4C[C@](O)(C(F)(F)F)CC[C@]4(C)[C@H]3CC[C@]12C [Compound 4156]
[1]
  pEC50: < 5.00
[1]; [3]
  Emax: 10.6%
[2]
  pEC50: < 5.00
[2]; [4]
  Emax: 20.1%

## CC[C@]1(O)CC[C@H]2C(=CC[C@@H]3[C@@H]2CC[C@]2(C)[C@@H]([C@H](C)CCC[C@H](C)O)CC[C@@H]32)C1 [Compound 9911]
[1]; [3]
  Emax: 234%
[2]; [4]
  Emax: 326%

## C[C@H](CCC1(O)CCC(F)(F)CC1)[C@H]1CC[C@H]2[C@@H]3CC=C4C[C@](O)(C(F)(F)F)CC[C@]4(C)[C@H]3CC[C@]12C [Compound 2392]
[1]
  pEC50: 6.98
[2]
  pEC50: 7.32

## CC[C@]1(O)CC[C@@]2(C)[C@@H](CC[C@@H]3[C@@H]2CC[C@]2(C)[C@@H]([C@H](C)CC[C@@H](O)c4ccccn4)CC[C@@H]32)C1 [Compound 7030]
[1]; [3]
  Emax: 28.3%
[2]; [4]
  Emax: 74.7%

## C[C@H](CCC(O)(c1ccccc1)C(F)(F)F)[C@H]1CC[C@H]2[C@@H]3CC=C4C[C@@](C)(O)CC[C@]4(C)[C@H]3CC[C@]12C (stereo partly shown) [Compound 559]
[1]; [3]
  Emax: 204%
[2]; [4]
  Emax: 373%

## C[C@H](CC[C@@H](O)C(C)(C)C)[C@H]1CC[C@H]2[C@@H]3CC=C4C[C@](O)(C(F)(F)F)CC[C@]4(C)[C@H]3CC[C@]12C [Compound 3382]
[1]
  pEC50: 7.17
[2]
  pEC50: 6.90

## CC[C@]1(O)CC[C@H]2C(=CC[C@@H]3[C@@H]2CC[C@]2(C)[C@@H]([C@H](C)CCCC4(O)CCC(F)(F)CC4)CC[C@@H]32)C1 [Compound 9810]
[1]; [3]
  Emax: 87.1%
[1]; [5]
  pEC50: 6.91
[2]; [4]
  Emax: 91.6%
[2]; [6]
  pEC50: 6.82

## C[C@H](CCC1(O)CCCCC1)[C@H]1CC[C@H]2[C@@H]3CC[C@H]4C[C@](O)(C(F)(F)F)CC[C@]4(C)[C@H]3CC[C@]12C [Compound 4023]
[1]
  pEC50: 6.29
[1]; [3]
  Emax: 322%
[2]
  pEC50: 6.39
[2]; [4]
  Emax: 418%

## CC[C@]1(O)CC[C@@]2(C)C(=CC[C@H]3[C@@H]4CC[C@H]([C@H](C)CC[C@@H](O)c5ccccc5)[C@@]4(C)CC[C@@H]32)C1 [Compound 861]
[1]
  pEC50: 6.70
[1]; [3]
  Emax: 183%
[2]
  pEC50: 6.61
[2]; [4]
  Emax: 390%

## CC[C@]1(O)CC[C@@]2(C)C(=CC[C@H]3[C@@H]4CC[C@H]([C@H](C)CC[C@H](O)c5cccc(C#N)c5)[C@@]4(C)CC[C@@H]32)C1 [Compound 6998]
[1]; [3]
  Emax: 338%
[1]; [5]
  pEC50: 6.45
[2]; [4]
  Emax: 303%
[2]; [6]
  pEC50: 6.52

## C[C@H](CCC(O)C(C)(C)C)[C@H]1CC[C@H]2[C@@H]3CC=C4C[C@](O)(C(F)(F)F)CC[C@]4(C)[C@H]3CC[C@]12C (stereo partly shown) [Compound 2500]
[1]
  pEC50: 7.20
[2]
  pEC50: 7.04

## C[C@H](CC[C@](C)(O)C(F)(F)F)[C@H]1CC[C@H]2[C@@H]3CC[C@H]4C[C@](O)(C(F)(F)F)CC[C@]4(C)[C@H]3CC[C@]12C [Compound 4]
[1]
  pEC50: 6.70
[1]; [3]
  Emax: 663%
[2]
  pEC50: 6.67
[2]; [4]
  Emax: 463%

## C[C@H](CC[C@@]1(O)CCOC1)[C@H]1CC[C@H]2[C@@H]3CC=C4C[C@](O)(C(F)(F)F)CC[C@]4(C)[C@H]3CC[C@]12C [Compound 3495]
[1]; [7]
  Emax: 107%
[2]
  Emax: 146%

## C[C@H](CCCC1(O)CC1)[C@H]1CC[C@H]2[C@@H]3CC[C@H]4C[C@](O)(C(F)(F)F)CC[C@]4(C)[C@H]3CC[C@]12C [Compound 4115]
[1]
  pEC50: 7.04
[2]
  pEC50: 6.94

## CC[C@]1(O)CC[C@H]2[C@@H](CC[C@@H]3[C@@H]2CC[C@]2(C)[C@@H]([C@H](C)CCC(C)(C)O)CC[C@@H]32)C1 [Compound 679]
[1]; [3]
  Emax: 105%
[1]; [5]
  pEC50: 5.29
[2]; [4]
  Emax: 172%
[2]; [6]
  pEC50: 6.55

## CC(C)[C@H](O)CC[C@@H](C)[C@H]1CC[C@H]2[C@@H]3CC[C@H]4C[C@](O)(C(F)(F)F)CC[C@]4(C)[C@H]3CC[C@]12C [Compound 2B]
[1]
  pEC50: 6.88
[1]; [3]
  Emax: 625%
[2]
  pEC50: 6.85
[2]; [4]
  Emax: 965%

## CC[C@]1(O)CC[C@@]2(C)[C@@H](CC[C@@H]3[C@@H]2CC[C@]2(C)[C@@H]([C@H](C)CC[C@H](O)c4ccccc4)CC[C@@H]32)C1 [Compound 6572]
[1]
  pEC50: 6.42
[1]; [3]
  Emax: 129%
[2]
  pEC50: 5.87
[2]; [4]
  Emax: 251%

## CC[C@]1(O)CC[C@H]2C(=CC[C@@H]3[C@@H]2CC[C@]2(C)[C@@H]([C@H](C)CCCC(C)(C)O)CC[C@@H]32)C1 [Compound 194]
[1]; [3]
  Emax: 162%
[1]; [5]
  pEC50: 6.70
[2]; [4]
  Emax: 192%

## CC[C@]1(O)CC[C@H]2[C@@H](CC[C@@H]3[C@@H]2CC[C@]2(C)[C@@H]([C@H](C)CCCC(C)(C)O)CC[C@@H]32)C1 [Compound 9670]
[1]
  pEC50: 6.44
[1]; [3]
  Emax: 154%
[2]
  pEC50: 6.66
[2]; [4]
  Emax: 213%
